This note sets out measurements from patent US8394641B2, “Method of hydrolyzing an enzymatic substrate” (Advanced Liquid Logic Inc., priority 2009, dated 2013).

For one experiment, the target named is T1, α-glucosidase (Homo sapiens, UniProt P10253).
T1 construct: DBS extracts were prepared from quality control (QC) dried blood spot samples; tissue CDC, Atlanta Ga; host or cells: dried blood spot extracts (pooled cord blood / leukoreduced red cells plus serum)
The experiment can be described thus: Pompe assay on bench, substrate hydrolysis with cyclodextrins, QC DBS extracts. In kind it is biochemical. The settings on record: data not shown. The procedure: To evaluate the efficacy of cyclodextrins in enhancing the hydrolysis of enzymatic substrates (4-MU substrates) used in NBS assays, DBS extracts were prepared from quality control (QC) dried blood spot samples (i.e., base pool (BP), low (L), medium (M) and high (H) activity samples). The QC samples were obtained from CDC, Atlanta Ga. The base pool (BP) QC sample was prepared from a pool of leukoreduced human red blood cells that was adjusted with serum to a hematocrit of 50%. The High (H) activity QC sample was prepared from pooled cord blood that was adjusted with serum to a hematocrit of 50%. The medium (M) activity QC sample was prepared by using 50% base pool (BP) and 50% high (H) activity sample. The low (L) activity QC sample was prepared by using 95% base pool (BP) and 5% high (H) activity sample. The BP sample is used as a control for hydrolysis non-specific to white blood cell lysosomal enzymes. The DBS extracts were analyzed using on-bench assay protocols for Fabry, Gaucher, Krabbe, and Pompe diseases. For each assay, on-chip reagent formulations were scaled up to bench volumes. Hydroxypropyl-β-cyclodextrin or methyl-β-cyclodextrin reagent stocks (300 mM) were prepared in appropriate assay buffers. […] Fluorescence was read at 360/460 nm at a gain of 75. For each assay, QC samples (BP, L, M and H) were analyzed in duplicate. […]

The next experiment addresses T2, acid β-D-glucosidase (Homo sapiens, UniProt P04062).
T2 sequence (P04062 40-536): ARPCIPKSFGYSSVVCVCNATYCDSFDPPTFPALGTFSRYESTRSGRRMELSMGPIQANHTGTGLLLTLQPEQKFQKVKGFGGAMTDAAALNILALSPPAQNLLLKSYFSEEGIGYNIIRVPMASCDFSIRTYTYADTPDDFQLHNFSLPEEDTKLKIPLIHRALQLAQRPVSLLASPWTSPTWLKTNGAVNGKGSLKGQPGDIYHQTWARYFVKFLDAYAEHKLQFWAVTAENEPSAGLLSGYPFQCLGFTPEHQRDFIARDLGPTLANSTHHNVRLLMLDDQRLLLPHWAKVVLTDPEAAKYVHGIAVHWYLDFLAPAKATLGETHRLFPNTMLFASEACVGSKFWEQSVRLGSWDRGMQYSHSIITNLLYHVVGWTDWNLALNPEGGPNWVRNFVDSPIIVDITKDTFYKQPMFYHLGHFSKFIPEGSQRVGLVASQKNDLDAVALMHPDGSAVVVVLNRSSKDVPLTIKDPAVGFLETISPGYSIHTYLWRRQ
In words: Gaucher assay on bench, substrate hydrolysis with cyclodextrins, QC DBS extracts. In kind it is biochemical. On the set-up: DBS extracts were prepared from quality control (QC) dried blood spot samples; tissue CDC, Atlanta Ga; host or cells: dried blood spot extracts (pooled cord blood / leukoreduced red cells plus serum). The following applies: for effect on fluorescence signal in the Gaucher assay, lower concentrations: 1, 5, 10, 15, 20, 25 mM, one experiment; for effect on hydrolysis of the 4-MU substrate in the Gaucher assay: 10, 30, 100 mM tested, effect at 10 mM, 20 hrs at 37° C. The procedure: To evaluate the efficacy of cyclodextrins in enhancing the hydrolysis of enzymatic substrates (4-MU substrates) used in NBS assays, DBS extracts were prepared from quality control (QC) dried blood spot samples (i.e., base pool (BP), low (L), medium (M) and high (H) activity samples). The QC samples were obtained from CDC, Atlanta Ga. The base pool (BP) QC sample was prepared from a pool of leukoreduced human red blood cells that was adjusted with serum to a hematocrit of 50%. The High (H) activity QC sample was prepared from pooled cord blood that was adjusted with serum to a hematocrit of 50%. The medium (M) activity QC sample was prepared by using 50% base pool (BP) and 50% high (H) activity sample. The low (L) activity QC sample was prepared by using 95% base pool (BP) and 5% high (H) activity sample. The BP sample is used as a control for hydrolysis non-specific to white blood cell lysosomal enzymes. The DBS extracts were analyzed using on-bench assay protocols for Fabry, Gaucher, Krabbe, and Pompe diseases. For each assay, on-chip reagent formulations were scaled up to bench volumes. Hydroxypropyl-β-cyclodextrin or methyl-β-cyclodextrin reagent stocks (300 mM) were prepared in appropriate assay buffers. For each reaction, 10 μL of the appropriate substrate was mixed with 10 μL of DBS extract. After an incubation period (20 hrs at 37° C.), 50 μL of stop buffer (0.2 M NaCO3, pH 10.1) was added to the reaction. Fluorescence was read at 360/460 nm at a gain of 75. For each assay, QC samples (BP, L, M and H) were analyzed in duplicate.
FIGS. 21A and 21B show bar graphs 2100 and 2150 of the effect of hydroxypropyl-β-cyclodextrin and methyl-β-cyclodextrin, respectively, on substrate hydrolysis in a Gaucher assay. The 4-MU substrate in the Gaucher assay was β-D-glucopyranoside. The concentrations of β-cyclodextrins in the reaction mixture (substrate+DBS extract) were 10 mM, 30 mM, and 100 mM.
FIGS. 23A and 23B show bar graphs 2300 and 2350, respectively, of an experimental result of the effect of lower concentrations of hydroxypropyl-β-cyclodextrin and methyl-β-cyclodextrin, respectively, on substrate hydrolysis in a Gaucher assay. The 4-MU substrate in the Gaucher assay was β-D-glucopyranoside. The concentrations of β-cyclodextrins in the reaction mixture (substrate+DBS extract) were 1, 5, 10, 15, 20, and 25 mM. […] The β-cyclodextrin used may be hydroxypropyl-β-cyclodextrin at a concentration from about 5 mM to about 15 mM, or from about 7 mM to about 13 mM, or from about 9 mM to about 11 mM, or from about 9.5 mM to about 11.5 mM.

Regarding hydroxypropyl-β-cyclodextrin, at α-glucosidase, the “effect on substrate hydrolysis in a Pompe assay” value is “less effective”. Further, on acid β-D-glucosidase, the “effect on fluorescence signal in the Gaucher assay, lower concentrations” value was “may affect the fluorescence signal” and the “effect on hydrolysis of the 4-MU substrate in the Gaucher assay” value is listed as “increase the hydrolysis”.

In the case of methyl-β-cyclodextrin, on α-glucosidase, the “effect on substrate hydrolysis in a Pompe assay” value is “less effective”. On acid β-D-glucosidase, the “effect on fluorescence signal in the Gaucher assay, lower concentrations” value is listed as “may affect the fluorescence signal” and the “effect on hydrolysis of the 4-MU substrate in the Gaucher assay” value was “increase the hydrolysis”.
